# Entries after “also recorded” stand apart in the source; their conditions may differ.
# Key:
# [1] = system: 2a recombinant J6core-NS2/JFH1, referred to as JFH1; assay: Antiviral treatment of HCV infected Huh7.5 cultures, high throughput assay, virus JFH1; assay type: cell-based, hepatitis C virus; settings: for inhibition of virus (concentration-response): JFH1(2a) in Huh7.5 cells, non-cytotoxic drug concentrations
# Method: (§1) HCV infected cultures were treated with NS3 Protease, NS5A, and NS5B polymerase inhibitors (purchased from Acme Bioscience) in a high throughput assay. Immunostaining of fixed 96-well plates was performed using anti-core C7- and anti-NS5A 9E10 at dilutions 1/450 and 1/1000, respectively.
# (§2) Concentration-response curves and EC50 values were calculated. The non-cytotoxic dose ranges for all drugs were determined with a cytotoxicity assay (CellTiter 96 AQueous One Solution Cell Proliferation Assay, Promega).
# (§3) HCV genetic divergence influences the sensitivity to lead direct acting antivirals. Our developed full-length culture systems permit the study of frontline HCV DAAs in the context of the complete HCV life cycle. Thus, we determined the efficacy of DAAs targeting different viral proteins against genotype 1a (strain TN), 2a (strain J6 and recombinant J6core-NS2/JFH18, referred to as JFH1, since it has the JFH1 protease, NS5A and NS5B), and 2b (strains DH8, J8, and DH10). For 2b viruses we used 3rd passage DH8_LSG, 5th passage J8cc, and 3rd passage DH10_LSG (FIGS. 6-10).
# [2] = system: genotype 1a (strain TN) full-length virus; assay: Antiviral treatment of HCV infected Huh7.5 cultures, high throughput assay, virus TN; assay type: cell-based, hepatitis C virus; settings: for inhibition of virus (concentration-response): TN(1a) in Huh7.5 cells, non-cytotoxic drug concentrations; for EC50 / sensitivity of virus, stated in words: TN(1a), numbers only in FIG. 11
# Method: as §1, §2, §3
# [3] = system: genotype 2b strain DH10 (3rd passage DH10_LSG); assay: Antiviral treatment of HCV infected Huh7.5 cultures, high throughput assay, virus DH10; assay type: cell-based, hepatitis C virus; settings: DH10(2b) in Huh7.5 cells; non-cytotoxic drug concentrations
# Method: as §1, §2, §3
# [4] = system: genotype 2b strain DH8 (3rd passage DH8_LSG); assay: Antiviral treatment of HCV infected Huh7.5 cultures, high throughput assay, virus DH8; assay type: cell-based, hepatitis C virus; settings: DH8(2b) in Huh7.5 cells; non-cytotoxic drug concentrations
# Method: as §1, §2, §3
# [5] = system: genotype 2a (strain J6) full-length virus; assay: Antiviral treatment of HCV infected Huh7.5 cultures, high throughput assay, virus J6; assay type: cell-based, hepatitis C virus; settings: for inhibition of virus (concentration-response): J6(2a) in Huh7.5 cells, non-cytotoxic drug concentrations; for EC50 / sensitivity of virus, stated in words: J6(2a), numbers only in FIG. 11
# Method: as §1, §2, §3
# [6] = system: genotype 2b strain J8 (5th passage J8cc); assay: Antiviral treatment of HCV infected Huh7.5 cultures, high throughput assay, virus J8; assay type: cell-based, hepatitis C virus; settings: for inhibition of virus (concentration-response): J8(2b) in Huh7.5 cells, non-cytotoxic drug concentrations
# Method: as §1, §2, §3
# [7] = system: Huh7.5 cells; assay: Transfection of Huh7.5 cells with RNA transcripts of full-length HCV recombinants; assay type: cell-based; settings: for HCV positive cells detected / HCV infectivity titers: after transfection; for spread of infection (≥80% HCV-antigen positive cells): day after transfection
# Method: (§4) Transfection and passage of recombinant full-length HCV in Huh7.5 cells. Transfections with RNA transcripts were performed as reported. For viral passage, cell free supernatants were incubated with […] Huh7.5 cells overnight. Cultures were split every 2-3 days and progression of infection was monitored by immunostaining on cells seeded in slides and co-stained with primary antibodies anti-core C7-50 (Enzo Life Sciences) and anti-NS5A 9E108, at dilution 1/25010. Infectivity titers expressed as Log 10 Focus Forming Units (FFU)/mL were determined as described. To improve staining, we used a mixture of anti-core C7- and anti-NS5A 9E10 at dilutions 1/450 and 1/1000, respectively. HCV RNA titers (IU/mL) on passage supernatants with peak infectivity titers were determined as previously described.
# [8] = system: Huh7.5 cells; assay: Viral passage of recombinant full-length HCV to naive Huh7.5 cells; assay type: cell-based
# Method: as §4
Compound,inhibition of virus (concentration-response) [1],inhibition of virus (concentration-response) [2],inhibition of virus (concentration-response) [3],inhibition of virus (concentration-response) [4],inhibition of virus (concentration-response) [5],inhibition of virus (concentration-response) [6],HCV infectivity titers [7],spread of infection (≥80% HCV-antigen positive cells) [7] [days],other results
Cn1c(C2(NC(=O)c3ccc4c(C5CCCC5)c(-c5ncc(Br)cn5)n(C)c4c3)CCC2)nc2ccc(/C=C/C(=O)O)cc21 [BI207127],inhibit all viruses in a dose dependent manner,inhibit all viruses in a dose dependent manner,inhibit all viruses in a dose dependent manner,inhibit all viruses in a dose dependent manner,inhibit all viruses in a dose dependent manner,inhibit all viruses in a dose dependent manner,,,"EC50 / sensitivity of virus, stated in words [2]: most sensitive virus"
CCc1cc(CC[C@]2(C3CCCC3)CC(O)=C(Cc3nc4nc(C)cc(C)n4n3)C(=O)O2)cc(CC)n1 [Filibuvir],no or very limited inhibition; also recorded: not inhibited,inhibited TN(1a) in a dose dependent manner,no or very limited inhibition; also recorded: not inhibited,no or very limited inhibition; also recorded: not inhibited,no or very limited inhibition; also recorded: not inhibited,no or very limited inhibition; also recorded: not inhibited,,,
C=C[C@@H]1C[C@]1(NC(=O)[C@@H]1C[C@@H]2CN1C(=O)[C@H](C(C)(C)C)NC(=O)O[C@@H]1C[C@H]1CCCCCc1nc3ccc(OC)cc3nc1O2)C(=O)NS(=O)(=O)C1CC1 [MK-5172],,,,,,,,,"EC50 / sensitivity of virus, stated in words ([1]; JFH1(2a), numbers only in FIG. 11): most sensitive viruses; EC50 / sensitivity of virus, stated in words [2]: most sensitive viruses"
CC(C)C(=O)OC[C@H]1O[C@@H](n2ccc(N)nc2=O)[C@](C)(F)[C@@H]1OC(=O)C(C)C [Mericitabine],"inhibited 1a, 2a, and 2b viruses in a dose-dependent manner","inhibited 1a, 2a, and 2b viruses in a dose-dependent manner","inhibited 1a, 2a, and 2b viruses in a dose-dependent manner","inhibited 1a, 2a, and 2b viruses in a dose-dependent manner","inhibited 1a, 2a, and 2b viruses in a dose-dependent manner","inhibited 1a, 2a, and 2b viruses in a dose-dependent manner",,,"EC50 / sensitivity of virus, stated in words [5]: most sensitive virus"
COc1ccc2c(O[C@@H]3C[C@H]4C(=O)N[C@]5(C(=O)NS(=O)(=O)C6CC6)C[C@H]5/C=C\CCCCN(C)C(=O)[C@@H]4C3)cc(-c3nc(C(C)C)cs3)nc2c1C [Simeprevir],,,,,,,,,"EC50 / sensitivity of virus, stated in words ([6]; J8(2b), numbers only in FIG. 11): lower EC50"
CC(C)OC(=O)[C@H](C)N[P@](=O)(OC[C@H]1O[C@@H](n2ccc(=O)[nH]c2=O)[C@](C)(F)[C@@H]1O)Oc1ccccc1 [Sofosbuvir],"inhibited 1a, 2a, and 2b viruses in a dose-dependent manner","inhibited 1a, 2a, and 2b viruses in a dose-dependent manner","inhibited 1a, 2a, and 2b viruses in a dose-dependent manner","inhibited 1a, 2a, and 2b viruses in a dose-dependent manner","inhibited 1a, 2a, and 2b viruses in a dose-dependent manner","inhibited 1a, 2a, and 2b viruses in a dose-dependent manner",,,"EC50 / sensitivity of virus, stated in words [5]: most sensitive virus"
CC(C)(C)C#Cc1cc(N(C(=O)[C@H]2CC[C@H](C)CC2)[C@H]2CC[C@H](O)CC2)c(C(=O)O)s1 [VX-222],no or very limited inhibition; also recorded: not inhibited,inhibited TN(1a) in a dose dependent manner,no or very limited inhibition; also recorded: not inhibited,no or very limited inhibition; also recorded: not inhibited,no or very limited inhibition; also recorded: not inhibited,no or very limited inhibition; also recorded: not inhibited,,,"EC50 / sensitivity of virus, stated in words [2]: most potent inhibitor"
"DH8CF: full-length HCV genotype 2b consensus clone of strain DH8, SEQ ID NO 1, KF420335",,,,,,,,,HCV positive cells detected [7]: No HCV positive cells were detected
"DH8_LSG/L758S/A1790T/V1951A/I2439T: DH8 full-length recombinant named DH8cc, SEQ ID NO 8, KF420336",,,,,,,4.1 Log 10 FFU/mL,6,HCV infectivity titers ([8]; 1st passage): 4.4 Log 10 FFU/mL; HCV infectivity titers ([8]; 2nd passage): 4.3 Log 10 FFU/mL
"DH8_LSG/L884P/V1951A/I2440T/L3021F: efficient full-length infectious DH8 recombinant, SEQ ID NO 7, KF420337",,,,,,,3.8 Log 10 FFU/mL,6,HCV infectivity titers ([8]; 2nd passage): 3.9 Log 10 FFU/mL
"DH8_LSG: DH8CF containing LSG mutations F1468L/A1676S/D3001G, SEQ ID NO:2",,,,,,,3.1-3.9 Log 10 FFU/mL,36 to 53,HCV positive cells detected [7]: ≥ 1 days; HCV infectivity titers ([8]; 1st passage): 3.1-4.2 Log 10 FFU/mL; spread of infection ([8]; 1st viral passage): 5 to 8 days; HCV infectivity titers ([8]; 3rd passage of transfection 1 culture A): 4.7 Log 10 FFU/mL
"J8_LSG/L758S/A1790T/V1951A/I2440T: efficient J8 virus with authentic NS3 protease, SEQ ID NO 15, KF420339",,,,,,,3.8 Log 10 FFU/mL,5,
"J8cc/M292L/L612M/G1154A/N1217Y/Q1763R/I2440T: J8 cell culture, high titer recombinant, SEQ ID NO 14, KF420338",,,,,,,4.7 Log 10 FFU/mL,3,

# Source: patent US10106782B2, “High-titer HCV full-length genotype 2B infectious cell culture systems and applications thereof” (Hvidovre Hospital, priority 2013, dated 2018)
